# Data taken from patent US12577214B2, “Polymorphs of bis(fluoroalkyl)-1,4-benzodiazepinone compounds and uses thereof” (Bristol-Myers Squibb Company, priority 2020, dated 2026).
# Where two headings read alike, the source gives them in different places.
# Experiments:
# Assay type in all cases: physicochemical
# [1] = Solubility of N-2 in water and solvents
# Method: N-2 has an aqueous solubility of <1 μg/mL in water.
# [2] = Form stability on heating (PXRD); conditions: heating to 270° C.
# Method: FIG. 1 depicts PXRD patterns of the N-2 form at room temperature (bottom), 165° C. (middle) and 270° C. (top).
# The crystal structure for Compound 1 was determined by single crystal X-ray diffraction studies on elongated prismatic crystals grown from THF/heptane. The intermolecular hydrogen-bonding in the N-2 structure is shown in FIGS. 12A-12B; the structure contains small voids of about 20 Å^3. The experimental PXRD pattern for N-2 matches the simulated pattern which confirms the single phase identity of N-2 crystallized in bulk (FIG. 13). […] (FIG. 1).
# [3] = Solid state stability of N-2 free base form
# Method: Solid state stability was conducted only on N-2, at 5° C., 25° C., 40° C./75% RH (open and closed), and 50° C. for up to 4 weeks.
# [4] = Form stability on slurrying in aqueous solutions (PXRD); conditions: slurry at RT in FASIF and in HCl (pH=1)
# Description: FIG. 16 depicts PXRD patterns of: P1 form following slurrying thereof in FASIF (fasted state simulated intestinal fluid) (top); in HCl (pH=1) (middle); and of N-2 form (bottom). […] (FIG. 14). […] (FIG. 15).
"solubility ([1]; PEG 400, organic solvent or mixture, read-out: solubility in PEG 400) [mg/mL]","solubility ([1]; in water, read-out: aqueous solubility) [mg/mL]",Physical form after heating [2],"Solid state stability (chemical and physical) ([3]; 5° C., 25° C., 40° C./75% RH (open and closed), and 50° C. for up to 4 weeks)",Stability when exposed to high intensity light (HIL)/ultraviolet (UV) light ([3]; HIL/UV light for 7 days),Form after slurrying in aqueous solutions [4],SMILES
~38,< 0.001,No physical change in form,chemically and physically stable,chemically and physically stable,–,Cc1cccc2c1NC(=O)[C@@H](NC(=O)[C@H](CCC(F)(F)F)[C@H](CCC(F)(F)F)C(N)=O)N=C2c1cccc(F)c1 [Compound N-2]
–,–,–,–,–,converts to N-2,Cc1cccc2c1NC(=O)[C@@H](NC(=O)[C@H](CCC(F)(F)F)[C@H](CCC(F)(F)F)C(N)=O)N=C2c1cccc(F)c1 [Compound P1]
